Experimental data published in patent EP2135612A1, “Use of ATP in the preparation of a medicament for treating, alleviating and/or enhancing survival of pre-terminal cancer patients” (Universiteit van Maastricht, priority 2008, dated 2009).

Legend:
TNF-α = conditions: ex vivo stimulated whole blood; via P2Y11 receptor; cited from earlier work
IL-10 = conditions: ex vivo stimulated whole blood; cited from earlier work
[1] = tested on: pre-terminal cancer patients; experiment: Randomized clinical trial: nutritional status (anthropometric measurements, nutritional intake) during the 8-week ATP intervention; format: in vivo
Method: (§1) Ninety-nine pre-terminal cancer patients (estimated life expectancy 1-6 mo) with mixed tumor types were randomly allocated to receive either ATP i.v. weekly (8 h/wk, max. 50 µg/kg.min) for 8 weeks, or no ATP (control group). Nutritional status parameters were assessed until 8 weeks, and analyzed by repeated-measures analysis of covariance. Cox proportional hazards models were fitted to assess the effect of ATP on short term (0-8 weeks) and long term (0-6 months) survival.
(§2) After baseline measurements, patients were stratified for center, tumor type, and weight loss (≤5% vs. >5% over past 6 months), and then randomly assigned to receive either usual care, standard nutritional advice and ATP (ATP group), or usual care and standard nutritional advice alone (control) group), using computer-generated random numbers with permutation blocks of four. In both groups, nutritional status parameters and co-interventions were assessed until 8 weeks.
(§3) Patients allocated to the ATP group received weekly ATP infusions during 8-10 hours over a period of 8 weeks (21). The first ATP infusion was offered under medical supervision at the day care center of the participating hospitals. ATP infusions were started at a dose rate of 20 µg/kg·min and increased in steps of 10 µg/kg·min per 10 minutes, until reaching a maximum dose rate of 50 µg/kg·min, or the maximally tolerated dose (MTD) if this was lower, in case of side effects. Thereafter, ATP was Infused at a continuous rate. Subsequent infusions were given at MTD in the patient's home.
Body height was determined using a flexible measuring tape. Body weight was measured without shoes, using an electronic scale (Soehnle 7407 Translucia, Germany). Triceps skin fold thickness was measured in triplicate at the dominant arm, with a Holtain® skin fold caliper (CMS weighing equipment LTD, London UK), and the median used for further calculations. Mid-upper arm circumference was measured in duplicate at the dominant side with a flexible measuring tape, and the mean value was used for further calculations.
In order to exclude inter-observer variability, longitudinal measurements in one patient were performed by one observer. Nutritional intake was assessed by a 3-day food diary, including meal preparation details, and checked by an experienced dietician. Intake of energy and protein was calculated using the Dutch Food Composition Table 2001 (NEVO, The Hague, The Netherlands), by the Software Program Komeet (version 4.0.58; BaS Nutrition Software, Arnhem, The Netherlands).
Data were doubly entered and analyzed according to the intention-to-treat principle. Curves were fitted to describe the time course of nutritional status parameters, and differences over time between the two groups appraised by repeated measurement analysis of covariance, using SAS Proc Mixed version 9.1 (SAS Institute Inc., Cary, NC, USA). Independent variables were the treatment indicator variable, the baseline measurement, measurement time, and the interaction between time and treatment. Statistical significance of treatment effects was assessed by testing the interaction between time and treatment. For weight analyses, patients with oedema and/or ascites were excluded. Because of the favorable previous results in patients with lung cancer (17), all analyses were repeated for this subgroup separately.

[2] = tested on: pre-terminal cancer patients; experiment: Randomized clinical trial: survival (Cox regression, Kaplan-Meier); format: in vivo
Method: as §1, §2, §3
Cox regression models were fitted including interaction terms between treatment and dummy variables for short term (i.e. 0-8 wks) and long term survival (i.e. 0-6 mo; dummy variables for 0-8 wks and 8 wks-6 mo were combined into a single dummy variable (0-6 mo) since Cox proportional hazards assumption was tested and not rejected). Median survival time was determined by extrapolation from confounder-adjusted Kaplan Meier plots. Because of previously shown survival benefit of ATP treatment in weight-losing stage IIIB NSCLC patients (18), we also performed stratified analyses in weight-stable and weight-losing patients separately defined as ≤5% or >5% weight loss over the past 6 months (22).
All models were appropriately adjusted for confounders. Two-tailed p-values <0.05 were considered statistically significant.

[3] = tested on: patients with non-small-cell lung cancer (NSCLC); conditions: cited from earlier work
[4] = tested on: stage IIIB/IV NSCLC patients; conditions: 15 chemotherapy-naïve stage IIIB/IV NSCLC patients; one to four 96-hour cycles i.v. ATP 50-65 µg/kg.min at 4-week intervals; cited from earlier work

In the case of `Nc1ncnc2c1ncn2[C@@H]1O[C@H](COP(=O)(O)OP(=O)(O)OP(=O)(O)O)[C@@H](O)[C@H]1O` [ATP, adenosine 5'-triphosphate], the TNF-α release (TNF-α) is given as “inhibited”, the IL-10 release (IL-10) is given as “enhanced” and the “Weight, change per 8 weeks, ATP group Estimate” value ([1]; ATP i.v. weekly 8-10 h, max. 50 µg/kg·min, 8 weeks, n=26, oedema/ascites excluded) is given as -2.62 kg. For the same compound, the “Triceps skin fold thickness, change per 8 weeks, ATP group Estimate” value ([1]; ATP i.v. weekly, max. 50 µg/kg·min, 8 weeks, n=48) was -1.84 mm, the “Mid-upper arm circumference, change per 8 weeks, ATP group Estimate” value ([1]; ATP i.v. weekly, max. 50 µg/kg·min, 8 weeks, n=49) was -2.24 cm and the “intake of energy and protein, difference between the two groups” value ([1]; ATP vs. control, 8 weeks, 3-day food diary) was “No statistically significant difference”. For the same compound, the “Triceps skin fold thickness, Between group difference Estimate per 8 weeks” value ([1]; ATP vs. control, p=0.009) was 1.76 mm, the “patients still alive on the census date” value ([2]; census date 10 September 2007, ATP group n=51) was 6 patients and the “HR, survival” value ([2]; lung cancer patients with >5% overall weight loss, p=0.052) was 0.21. The “HR, survival 0-8 weeks” value ([2]; patients with lung cancer (n=44)) was 0.17, the “HR, survival 0-6 months” value ([2]; patients with lung cancer (n=44), p=0.025) was 0.35 and the “HR of ATP vs. control, short-term (0-8 weeks) survival” value ([2]; total group (ATP n=51; control n=48), p=0.037) was 0.40. For the same compound, the Median survival ([2]; total group, ATP group, extrapolated from confounder-adjusted Kaplan Meier plots) was 150 days, the “HR, long term survival (0-6 months)” value ([2]; total group, p=0.26, not significant) was 0.71 and the effect on survival ([2]; weight-losing patients (>5% weight loss over past 6 months)) was “No significant effect”. The “HR, survival during the 8-week intervention” value ([2]; weight-stable patients (≤5% weight loss over past 6 months; ATP n=33; control n=31), p=0.001) was 0.20, the “HR, long term survival (0-6 months)” value ([2]; weight-stable patients, p=0.014) was 0.40 and the “effects on nutritional intake, body weight, fat and muscle mass” value ([3]; ATP infusions over 30 h at 2- to 4-week intervals, max. 75 µg/kg.min) was “marked beneficial effects”. The survival ([3]; weight-losing patients with stage IIIB NSCLC) was “highly significant survival benefit” and the stable disease [4] was 8 patients.
